Entries after “also recorded” stand apart in the source; their conditions may differ.
How the values were obtained:
[1] = tested on: lactating mammary gland; details: Craigmill et al. (1989), cited from earlier work
[2] = tested on: human breast cancer cell lines (MCF7, ZR75, T47D); assay: Neutral red dye uptake assay (in vitro cytotoxicity), human breast cancer cell lines; assay type: cell-based; details: 10 to 0.3125 μg/ml, 20 hours incubation, average of 2 experiments, actual concentration reaching the cells unknown
Source text: For purposes of using a rapid, simple and cheap method of pre-screening cytotoxicity, we chose the neutral red dye uptake procedure to test such activity in the given extract.
Human breast and ovarian cancer cell lines were maintained in RPMI 1640 culture medium supplemented with 10% fetal calf serum, 2 mm L-glutamine and penicillin, streptomycin and fungizone. Cells were passaged by trypsinization and plated in 96-well flat-bottomed tissue culture plates at 5×10^4 cells per well. Cells were preincubated for 6 hours at 37° C., 5% CO2 in a humidified atmosphere to allow cell attachment prior to addition of the extract.
Persin was dissolved in DMF (supplied by National Research Centre for Environmental Toxicology) to give a stock solution of 100 μg/ml. […] 10 μl of the solution was added to quadruplicate wells in doubling dilution from 10 μg/ml to 0.3125 μg/ml (final concentration). Control wells had tissue culture diluent added only. DMF controls had DMF added to a final concentration of 0.1%. The extract was incubated with the cells for 20 hours before being gently aspirated. Cells were washed twice with Hanks Balanced Salt Solution (HBSS) with centrifugation in special microtiter plate carriers between washes so as not to lose viable but dislodged cells.
Neutral red was prepared fresh before each experiment from a 1% stock solution. One hundred microtiters of working solution (67 μg/ml in HBSS) was added to all wells and incubation continued for a further 4 hours. Non-absorbed dye was removed by washing cells as described above.
Absorbed dye was extracted from cells by adding 100 μl of 50% ethanol in 1% acetic acid.
Plates were mixed thoroughly to allow full extraction of the dye and were then read in a Multiscan plate reader at 540 nm. Dose response curves were constructed by plotting the percentage of untreated/control well OD540 versus concentration of extract. Individual extract concentration points were tested in quadruplicate and the results presented are averaged from 2 separate experiments. […]

[3] = tested on: lactating mammary gland; assay type: in vivo, mouse; details: for activity in inducing widespread lactating mammary gland necrosis: 50-100 mg/kg body weight
Source text: (§1) White lactating female Quackenbush mice of body weight 40-50 g were used. All animal experiments followed the code of practice for the care and use of animals for experimental purposes as outlined by the Australian National Health and Medical Research Council. For the toxicity testing of leaf and crude extracts, on the fourth day after parturition the litter of each mouse was reduced to eight pups and weights of dam and litter respectively recorded. The dam was then separated from the litter and fasted overnight. On the following day and for 24 hours thereafter, the dam was offered 20 g of powdered commercial rodent diet containing 5% of powdered freeze-dried avocado leaf. In the case of preliminary organic extracts of the leaf, equivalent quantities were added to 20 g of powdered rodent diet, mixed thoroughly and the solvent evaporated under reduced pressure. After 24 hours on the medicated diet, regular untreated cubed diet was provided and the litter restored to the dam. At later stages of the isolation and purification of the active principle, the compound was suspended in up to 1 ml of 1% Tween 80 or Intralipid and given as a single dose by gavage on days 4 to 5 of lactation without prior fasting of the dam and simultaneous temporary removal of her pups. The dam and her pups were weighed daily. […] From 3 to 7 days after exposure to the avocado supplemented diet, or gavage of the purified extracts as the case may be, the dam was euthanased with carbon dioxide and all mammary glands and heart removed and fixed in buffered neutral 10% formalin for pathological examination.
The R and S isomers of persin were tested for activity required to induce widespread lactating mammary gland necrosis at the dose rate of 50-100 mg/kg body weight.

[4] = tested on: heat and lactating mammary gland of the mouse; details: Sani et al., 1993 symposium; cited from earlier work
[5] = tested on: human colon cancer cell line (LS174T); assay: Neutral red dye uptake assay (in vitro cytotoxicity), human colon cancer cell line; assay type: cell-based; details: any dose tested (10 to 0.3125 μg/ml), 20 hours
[6] = tested on: silkworm larvae; details: isolated from avocado leaves; Chang et al. 1975; cited from earlier work
[7] = tested on: myocardium; assay: Pathological effects on the myocardium after oral dosing; assay type: in vivo, mouse
Source text: as §1

[8] = as above; assay type: in vivo, mouse; details: myocardium; mouse, oral; read-out: dose above which necrosis of myocardial fibres may occur
Source text: as §1

[9] = tested on: Colletotrichum gloeosporioides; details: cited from earlier work
[10] = tested on: lactating mammary gland; assay type: in vivo; details: even as high single dose 200 mg/kg, mouse
[11] = tested on: avocado lipoxygenase; details: declines during ripening of the fruit; cited from earlier work

COc1cc2c(c(OC)c1OC)-c1ccc(OC)c(=O)cc1[C@@H](NC(C)=O)CC2 [colchicine]
mechanism: microtubule inhibition [1]: microtubule inhibitors
effect on milk ejection from secretory acinar cells ([1]; locally applied to the acinar cells): prevent ejection of milk from the cells into the acinar lumen

CCCCCCCCCCCCCCCCCC(=O)C[C@@H](O)COC(C)=O [RMC328, (R)-2-Hydroxy-4-oxohenicosan-1-yl Acetate]
sensitivity of human breast cancer cell lines relative to other cell lines (neutral red uptake) [2]: the three human breast cancer cell lines showing the greatest sensitivity to the compounds

CCCCC/C=C\C/C=C\CCCCCCCC(=O)C[C@@H](O)COC(C)=O [persin, (+)-(Z,Z)-1-acetyloxy-2-hydroxy-12,15-heneicosadien-4-one]
activity in inducing widespread lactating mammary gland necrosis ([3]; mouse): active
mammary epithelium histology (FIG. 9A) ([3]; 72 hours after single oral dose of 60 mg/kg on 4th day of lactation): extensive coagulative necrosis of the secretory tissues
single oral dose required to induce widespread, non-fatal injury to the lactating mammary gland ([3]; mouse, single oral dose): 60 to 100 mg/kg
character of the mammary gland injury ([3]; mouse, single oral dose, 60 to 100 mg/kg): interstitial oedema, congestion and haemorrhage and coagulative necrosis with desquamation of the acinar epithelial cells thereby preventing lactation
inhibition of milk secretion ([3]; oral dosing): inhibition of milk secretion through such a necrogenic action on the secretory epithelium
damage to lactating mammary gland ([3]; present studies): causes damage both to the lactating mammary gland and the heart muscle
toxicity for heart and lactating mammary gland [4]: responsible for demonstrated toxicity for the heat and lactating mammary gland of the mouse
effect on human colon cancer cell line (neutral red uptake) [5]: not affected by the extract at any dose tested
growth of silkworm larvae [6]: inhibited the growth of silkworm larvae
myocardium histology (FIG. 9C) ([7]; 100 mg/kg orally, seven days previously): marked atrophy of muscle fibres (M) interstitial haemorrhage (H) and early scar tissue formation (S)
myocardial fibrosis ([7]; doses above 100 mg/kg, animals surviving for seven days): areas of myocardial fibrosis can be observed in animals surviving for seven days
hydrothorax / pulmonary oedema ([7]; doses above 100 mg/kg, more severely affected animals): Hydrothoraz and/or pulmonary oedema may be present in more severly affected animals
damage to heart muscle ([7]; present studies): causes damage both to the lactating mammary gland and the heart muscle
NOAEL [8]: > 100 mg/kg
sensitivity of human breast cancer cell lines relative to other cell lines (neutral red uptake) [2]: Three human breast cancer cell lines showed greater sensitivity to the extract than other cell lines tested; also recorded: the three human breast cancer cell lines showing the greatest sensitivity to the compounds
sensitivity of human breast cancer cell lines relative to other cell lines (neutral red uptake) ([2]; listed as extract): the human breast cancer cell lines were more sensitive to the extract than the other cell lines
antifungal activity ([9]; isolated from avocado fruit peel or whole fruits, refs (ii) to (xiii)): exhibits antifungal activity in relation to the fungus Colletotrichum gloeosporioides
loss of activity on double bond oxidation ([9]; natural compound, reference (v)): loses activity due to double bond oxidation

CCCCC/C=C\C/C=C\CCCCCCCC(=O)C[C@H](O)COC(C)=O [S isomer, (2S)-2-hydroxy-4-oxo-henicosa-12Z,15Z-dien-1-yl acetate]
activity in inducing widespread lactating mammary gland necrosis (high single dose) [10]: inactive

CCCCC/C=C\C/C=C\CCCCCCCC(=O)CC(O)COC(C)=O (racemic) [mixture of isomers in equal proportions]
activity in inducing widespread lactating mammary gland necrosis ([3]; mouse): less active than the R isomer

Oc1cc(O)c2c(c1)O[C@H](c1ccc(O)c(O)c1)[C@H](O)C2 [epicatechin]
inhibition of avocado lipoxygenase [11]: inhibitor of the enzyme

— patent publication US6057366A (priority 1994, dated 2000)
